Columns and labels:
[1] = tested on: avidin-expressing and non-expressing tumor cells; settings: expected outcome; LD50 against expressing vs. non-expressing cells
Text: The LD50 against avidin-expressing and non-expressing tumor cells of each will be evaluated, in vitro. The maximum tolerated dose and anti-tumor efficacy of each will also be evaluated in PCa models. […] Upon necropsy, tumor xenografts will be pathologically analyzed to evaluate cell killing. […] Tumor size will be measured with calipers, or with BLI in the case of g- or fLuc-expressing cells.

[2] = tested on: tumors and metastases; settings: prior studies, adenovirus-based oncolytic gene delivery, nude mice; cited from earlier work

## ^213Bi-CHX-A-DTPA-biotin [^213Bi conjugate]
[1]
  specificity of cell killing to avidin expressing cells: highly specific to expressing cells

## ^90Y-CHX-A-DTPA-biotin [^90Y conjugate]
[1]
  specificity of cell killing to avidin expressing cells: less specific to avidin expressing cells

B1: MDA-7/IL-24: melanoma differentiation associated gene-7/Interleukin-24, immunomodulatory cytokine, delivered by adenovirus (protein, UniProt Q13007 52-206, looked up)
Interleukin-24: QEFHFGPCQVKGVVPQKLWEAFWAVKDTMQAQDNITSARLLQQEVLQNVSDAESCYLVHTLLEFYLKTVFKNYHNRTVEVRTLKSFSTLANNFVLIVSQLQPSQENEMFSIRDSAHRRFLLFRRAFKQLDVEAALTKALGEVDILLTWMQKFYKL
modifications: adenovirus-delivered
notes: melanoma differentiation associated gene-7/Interleukin-24, immunomodulatory cytokine, delivered by adenovirus
[2]
  effect on tumors and metastases: complete eradication of tumors and metastases
